Here are results for five molecules from patent US11795213B2, “Methods and compositions for treating celiac disease” (Beth Israel Deaconess Medical Center, Inc., priority 2010, dated 2023).

The subject of one assay is U937. Kind of assay: Cytokine secretion by stimulated U937 monocytic cells (ELISA). The assay is classed as cell-based, human. The following applies: even at 40 μg/ml. An excerpt:
(§1) To examine how far gliadin elicits innate immune responses, we stimulated the human monocytic cell lines THP-1 and U937 with different concentrations of gliadin digested with pepsin and trypsin (PT gliadin) and measured secretion of proinflammatory cytokines in the supernatant. A digest of zein, partly homolgous storage proteins from corn that lack toxicity for patients with celiac disease, served as negative control. […] To rule out LPS contamination as trigger of innate responses, gliadin, LPS, and TNF-α were digested with proteinase K, completely digesting and abrogating all peptide-related activities.
(§2) THP-1, U937, HEK-293 (all from ATCC, Manassas, VA), and HEK-293 cells stably transfected with the TLR4-CD14-MD2 complex (Invivogen) were cultured in complete RPM or DMEM (Cellgro, Manassas, VA) supplemented with penicillin/streptomycin and 10% fetal calf serum at 37° C. in a 5% CO2 atmosphere.
(§3) For stimulation cells were seeded on polystyrene wells at a density of 1×10^6/ml. Unless otherwise stated supernatants were harvested after a 16 hr incubation with various stimulants.
(§4) The concentration of IL-8, TNF-α, MCP-1, RANTES, and mouse IL-8 (KC) in cell culture supernatants and serum samples was determined using validated ELISAs (IL-8, hTNFα: BD Pharmingen, San Jose, CA; MCP-1, hRANTES, mRANTES, KC: R&D Systems, (Minneapolis, MN; mTNFα: eBioscience, San Diego, CA), according to the manufacturer's protocols.
Background: An ELISA detects its analyte on a solid surface through an enzyme-linked reagent.

The subject of assay [1] is intestinal epithelial cell lines (HT29, Caco-2 and T84). Kind of assay: Cytokine secretion by intestinal epithelial cell lines. It counts as cell-based. The following applies: even at 40 μg/ml. As to the method:
as §3, §4

The subject of the next assay is THP-1. As to the kind of experiment: Cytokine secretion by stimulated THP-1 monocytic cells (ELISA). It counts as cell-based, human.
Excerpt: as §1, §2, §3
After proteinase K inactivation by boiling for 5 minute the digests were used for cell stimulation.
as §4

In another assay the test system is celiac biopsies. The following applies: shown previously; cited from earlier work.
Assay [2] has as its target T1, human TLR4-CD14-MD2-complex (Homo sapiens, UniProt O00206+Q9Y6Y9).
T1 construct: host or cells: HEK-293 (stably transfected)
Kind of assay: IL-8 secretion by HEK-293 cells transfected with TLR4-CD14-MD2 complex. The assay is classed as cell-based. The following applies: for IL-8 secretion: TLR4-CD14-MD2 transfected HEK-293; for stimulatory activity after additional purification using an endotoxin depletion column: 5 μg/ml, IL-8 after 24 h, FIG. 9C. The method, then: as §2, §3, §4
While sufficient CM3 protein was secreted into the media, 0.19 ATI had to be isolated from the detergent-soluble fraction. Briefly, HEK-cells expressing 0.19 were washed with ice cold-PBS, resuspended in 50 ml of buffer C for 15 min on ice, and centrifuged at 14,000 rpm for 20 min at 4° C. Thus, the solubilized 0.19 and soluble CM3 were bound to Flag-M2 agarose (Sigma-Aldrich) pre-equilibrated with buffer C by gentle shaking for 3 h at 4° C., washed three times with buffer C, and further washed three times with buffer D (Buffer C without detergents). Bound ATIs were eluted with TBS [pH 7.4] containing Flag peptide (Sigma-Aldrich). In order to rigorously exclude endotoxin, eluted CM3 and 0.19 were also applied to an entotoxin removal column (Norgen Biotek corp., Thorold, ON, Canada). ATIs were the used at 5 μg/ml to stimulate HEK-293 cells stably transfected with the TLR4-CD14-MD2 complex, and IL-8 secretion was quantified after 24 h using the IL-8 ELISA as described above.

Assay [3] concerns peritoneal macrophages of C3H/HeJ mice that lack TLR4 responses. Kind of assay: Cytokine secretion by peritoneal macrophages of TLR4 deficient C3H/HeJ versus C3H/HeOuJ mice. It counts as cell-based, mouse. The following applies: TLR4 deficient C3H/HeJ compared to syngenic C3H/HeOuJ TLR4 competent mice. As to the method:
Since MyD88 transmits signals from several TLRs, we studied peritoneal macrophages of C3H/HeJ mice that lack TLR4 responses due to a spontaneous point mutation in the TLR4 gene.
Murine resident peritoneal macrophages were isolated by peritoneal lavage using a 3 ml syringe and 18 G needles. Three 3 ml of sterile PBS was injected into the peritoneal cavity and reaspirated after gentle massage of the abdomen. For further purification MACS separation for CD11b positive cells was done according to the manufacturer's protocol (Miltenyi).
as §3
C3H/HeJ, C3H/HeOuJ and Rag1−/− mice were obtained from The Jackson Laboratory (Bar Harbour, ME). The MyD88−/− mice were a kind gift from S. Akira, (Osaka University, Osaka, Japan). Congenic C57BL/6J mice served as experimental controls and were bred under the same conditions in the same facility. All experiments were done with mice at age 5-7 weeks.
as §4

The subject of assay [4] is human monocyte-derived dendritic cells (DC). Kind of assay: Cytokine secretion by human monocyte-derived dendritic cells (ELISA). It counts as cell-based. The method, then: For isolation of peripheral monocytes 40 ml blood was obtained from 11 patients with celiac disease during their diagnostic workup (median 37 years, range 18-59 years), after prior informed consent Eight patients were on gluten free diet and in clinical remission, three patients were newly diagnosed and therefore on a regular gluten containing diet Control monocytes were from the buffy coat of leukopheresis concentrates of anonymous blood donors. Whole EDTA blood or leukapheresis concentrates were subjected to density gradient centrifugation over Ficoll-Hypaque (GE Healthcare, Pittsburgh, PA) and CD14-positive monocytes purified by MACS separation according to the manufacturer's protocol (Miltenyi, Bergisch Gladbach, Germany). For generation of dendritic cells, monocytes were cultured in RPMI supplemented with 10% fetal calf serum, 200 U/ml rhIL-4 and 300 U/ml rhGM-CSF (both from PeproTech, Rocky Hill, NJ) for 6-8 days.
For stimulation cells were seeded on polystyrene wells at a density of 1×10^6/ml. […]
as §4

A further assay deals with TLR4-pathway. As to the kind of experiment: Downstream signaling by CM3 and 0.19 overexpression in TLR4-CD14-MD2 expressing HEK-293 cells (Western blot). The assay is classed as cell-based. The following applies: overexpression in TLR4/MD2/CD14 expressing HEK-293 cells. The method, then: FIG. 9D is a western blot showing expression of CM3 and 0.19 in TLR4-CD14-MD2 expressing HEK-293 cells (HEK-TLR4) induces downstream signaling of the canonical (p-NF-κB/p65) and the alternative (p-IRF3) pathways. Western blots of whole cell lysates (50 μg protein).
HEK-293 cells stably expressing TLR4-CD14-MD2 were induced to express CM3 or 0.19, respectively, followed by cell lysis in buffer C. Lysates were cleared by centrifugation at 14,000 rpm for 20 min at 4° C., and 50 μg of protein run on a 15% SDS-gel and subjected to Western blotting to analyze activation of the canonical and the alternative (p-IRF3) pathways using antibodies to phosphorylated and unphosphorylated (p-NF-κB/p65) and IRF3 (all from Cell Signaling Technology, Danvers, MA).
For orientation: In western blotting, separated proteins are transferred to a membrane and probed.

T1 sequence (O00206 24-839): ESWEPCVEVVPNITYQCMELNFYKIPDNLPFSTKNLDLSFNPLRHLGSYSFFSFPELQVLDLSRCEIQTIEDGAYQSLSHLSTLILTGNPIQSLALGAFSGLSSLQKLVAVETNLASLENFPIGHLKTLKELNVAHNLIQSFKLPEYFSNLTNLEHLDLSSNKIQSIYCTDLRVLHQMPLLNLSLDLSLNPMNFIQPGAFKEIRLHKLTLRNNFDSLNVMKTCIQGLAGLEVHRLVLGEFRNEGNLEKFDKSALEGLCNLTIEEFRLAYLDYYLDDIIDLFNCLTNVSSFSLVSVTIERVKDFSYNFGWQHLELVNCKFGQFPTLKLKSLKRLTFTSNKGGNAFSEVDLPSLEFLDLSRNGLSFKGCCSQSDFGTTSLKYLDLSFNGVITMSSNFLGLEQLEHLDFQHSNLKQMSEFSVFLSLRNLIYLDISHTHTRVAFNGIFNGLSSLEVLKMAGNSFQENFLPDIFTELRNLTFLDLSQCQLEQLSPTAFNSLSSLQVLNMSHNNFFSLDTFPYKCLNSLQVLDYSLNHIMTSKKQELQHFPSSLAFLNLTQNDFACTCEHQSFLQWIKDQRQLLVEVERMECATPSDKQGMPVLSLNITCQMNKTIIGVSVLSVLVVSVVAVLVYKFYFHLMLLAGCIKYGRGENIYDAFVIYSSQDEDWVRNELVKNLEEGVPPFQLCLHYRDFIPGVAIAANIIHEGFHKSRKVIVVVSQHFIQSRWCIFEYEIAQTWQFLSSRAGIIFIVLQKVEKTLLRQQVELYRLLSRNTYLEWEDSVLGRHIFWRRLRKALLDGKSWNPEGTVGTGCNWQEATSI
T1 sequence (Q9Y6Y9 17-160 limits assumed): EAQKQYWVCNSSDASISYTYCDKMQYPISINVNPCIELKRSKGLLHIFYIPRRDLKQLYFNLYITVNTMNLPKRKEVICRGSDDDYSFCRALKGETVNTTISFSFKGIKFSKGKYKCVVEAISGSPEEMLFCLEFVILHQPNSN

As for “LGQQQPFPPQQPY [p31-43, Peptide p31-43 of α-gliadin]”, in the assay with U937, the IL-8 secretion entry is listed as “did not elicit secretion”, the MCP-1 secretion result is “did not elicit secretion” and the TNF-α secretion entry is “did not elicit secretion”. For the same molecule, in assay [1], the IL-8 secretion entry is on record as “did not elicit secretion”, the MCP-1 secretion entry is on record as “did not elicit secretion” and the TNF-α secretion entry is on record as “did not elicit secretion”. Further, in the assay on THP-1 (even at 40 μg/ml), the IL-8 secretion entry was “did not elicit secretion”, the MCP-1 secretion result is recorded as “did not elicit secretion” and the TNF-α secretion result is given as “did not elicit secretion”. The IL-15 secretion entry with celiac biopsies is “increases IL-15 secretion”.

Turning to “N-Palmitoyl-S-[2,3-bis(palmitoyloxy)-(2RS)-propyl]-[R]-cysteinyl-[S]-seryl-[S]-lysyl-[S]-lysyl-[S]-lysyl-[S]-lysine x3 HCl [Pam3CSK4]”, in assay [2], the IL-8 secretion entry is given as “absence of IL-8 induction”. Moreover, in assay [3], the “KC (IL-8) secretion” value is recorded as “equally high amounts” and the TNF-α secretion result is given as “equally high amounts”.

In the case of TNF-α, the “IL-8 induction after proteinase K digestion of the stimulant” value in the assay on THP-1 (20 μg/ml proteinase K, 4 hrs at 56° C., FIG. 1F) is “lost its stimulatory capacity”.

B1: CM3: recombinant flag-tagged wheat alpha amylase inhibitor CM3 (SEQ ID NO: 1) expressed in HEK-293 cells (protein)
chain: MACKSSCSLLLLAAVLLSVLAAASASGSCVPGVAFRTNLLPHCRDYVLQQTCGTFTPGSLPEWMTSASIYSPGKPYLAKLYCCQELAEISQQCRCEALRYFIALPVPSQPVDPRSGNVGESGLIDLPGCPREMQWDFVRLLVAPGQCNLATIHNVRYCPAVEQPLWIDYKDDDDK
modifications: FLAG tag
With B1, in assay [2], the “stimulatory activity after additional purification using an endotoxin depletion column” value is given as “maintained” and the IL-8 secretion entry is listed as “stimulated”. For the same molecule, the IL-8 secretion entry in assay [4] is on record as “upregulated IL-8 secretion”. Also, in the assay with TLR4-pathway, the “alternative TLR4-pathway (p-IRF3)” value is listed as “strongly induced” and the “canonical TLR4-pathway (p-NF-κB/p65)” value is reported as “strongly induced”.

B2: 0.19: recombinant flag-tagged wheat alpha amylase inhibitor 0.19 (SEQ ID NO: 2) expressed in HEK-293 cells (protein, listed as Triticum aestivum)
chain: SGPWMCYPGQAFQVPALPACRPLLRLQCNGSQVPEAVLRDCCQQLAHISEWCRCGALYSMLDSMYKEHGAQEGQAGTGAFPRCRREVVKLTAASITAVCRLPIVVDASGDGAYVCKDVAAYPD
modifications: FLAG tag
With B2, in assay [2], the “stimulatory activity after additional purification using an endotoxin depletion column” value was “maintained” and the IL-8 secretion entry was “stimulated”. In addition, in the assay on TLR4-pathway, the “alternative TLR4-pathway (p-IRF3)” value is “strongly induced” and the “canonical TLR4-pathway (p-NF-κB/p65)” value was “strongly induced”.
